{"source": "patent US20130266557A1", "about": "“METHODS FOR TREATMENT OF A SARCOMA USING AN EPIMETABOLIC SHIFTER (COENZYME Q10)” (priority 2009, published 2013)", "key": {"NCIES0808 cells [1]": {"tested_on": "NCIES0808 cells", "test": "Western blot analysis", "assay_type": "cell-based, human", "protocol": "Cells were grown and treated with CoQ10 at 50 uM and 100 uM, along with the proper controls. The total cell lysates (as prepared above) were processed and evaluated by Western blot analysis. Proteins from each treatment group were resolved on SDS-PAGE and transferred onto PVDF membranes. They were then hybridized with antibodies.\nEither 5 or 10 μg of protein was assayed per sample by immunoblotting. Proteins were separated on 10-20% Tris-HCl gels or 4-12% Bis-Tris gels, transferred via electrophoresis to PVDF membranes and blocked using a 5% GE/Amersham ECF blocker and TBST solution prior to incubation with primary antibodies. The primary antibodies were incubated overnight at 4 degrees C. in a 5% BSA and TBST solution. Secondary antibodies were incubated for one hour at room temperature. All antibodies were purchased from commercial vendors. Antibodies were used at the manufacturers' recommended dilution, with the control βActin at a dilution of 1:5000. Blots were developed using GE/Amersham ECF reagent, and results were quantified using the Fuji FL-5100 laser scanner and Bio-Rad Quantity One densitometry analysis software. All blots were also probed for and normalized to their respective βActin expression.\nNCIES0808 cells treated for 24 hours with 50 or 100 μM Q10 were subjected to Western blot analysis and were analyzed to identify protein-level changes relative to the control media samples.\nProtein obtained from the treated cells was evaluated by Western blot analysis against an antibody for Angiotensin-converting enzyme (ACE) (FIG. 4A), an antibody for Caspase 3 (FIG. 4B), an antibody for GARS (FIG. 4C), an antibody for Matrix Metalloproteinase 6 (MMP-6) (FIG. 4D) and a series of antibodies for Neurolysin (NLN) (FIGS. 4E-F)."}, "NCIES0808 cells [2]": {"tested_on": "NCIES0808 cells", "test": "Real-time PCR, Human Diabetes Arrays", "assay_type": "cell-based", "protocol": "(§1) NCIES0808 cells were plated in T25 flasks at a density of 2×10^6 cells per flask in media or media containing 50 uM/100 uM Q10. All treatment groups were run in triplicate. Cells were harvested at 0, 3, 6, 24 or 48 hours. Pictures were taken to examine cell morphology before harvesting. To harvest cells, media was removed but saved to be able to collect floating apoptotic cells. Cells were trypsinized with 1 ml of trypsin-EDTA and the enzyme action was stopped by addition of 4 ml complete media. Trypsinized cells were added to the appropriate tube containing the media with dead cells. Cells were centrifuged at 1200 rpm for 5 minutes and media was aspirated leaving behind the cell pellet for RNA extraction. RNA isolation from cell pellets was carried out with the RNeasy kit (Qiagen, Valencia Calif.) according to the manufacturer's instructions. RNA samples were eluted from spin columns in water; absorbance was measured at 260 nm, 230 nm and 280 nm. The purity of RNA was evaluated by the 260/230 and 280/230 ratios. The concentration of RNA in all of the samples was calculated from absorbance values at […]. First strand cDNA was synthesized from 0.5 ug of all RNA samples using instructions provided with the First strand kit (SABiosciences, Frederick, Md.). The synthesized first strand from a sample was dispensed equally in a PCR array plate containing primers within a pathway (Angiogenesis, Diabetes and Mitochondria) (SABiosciences Corporation, Frederick, Md.). The arrays were amplified with real time PCR using the SYBR green detection methods using manufacturer approved protocols. The ct values from each of the samples were normalized to three housekeeping genes and fold regulation of Q10 treated groups was compared to time matched controls from cells grown in regular media was calculated.\n(§2) The experiments described in this example were performed to test the overall hypothesis that Q10 would have an impact on expression of multiple genes in Ewing's sarcoma cells. The mRNA from NCIES0808 cells treated with 50 μM or 100 μM Q10 for various times was evaluated by RT-PCR against a panel of target proteins involved in human diabetes, human angiogenesis or human mitochondrial pathways.\n(§3) Ct values obtained from a real time thermocycler were loaded onto the analysis tool on the SABiosciences website for calculation of fold regulation compared to cells with media. The genes that are included in the tables below are those that show a p value of close to 0.05."}, "cancer patients": {"tested_on": "cancer patients", "conditions": "eight case histories, oral CoQ10; cited from earlier work"}, "NCIES0808 cells [3]": {"tested_on": "NCIES0808 cells", "test": "Real-time PCR, Human Angiogenesis Arrays", "assay_type": "cell-based", "conditions": "100 uM Q10", "protocol": "as §1, §2, §3"}, "[4]": {"conditions": "cited from earlier work"}, "[5]": {"conditions": "24 hours with 50 or 100 μM Q10, relative to control media"}}, "note": "Read-outs that look alike come from different tables or passages of the source.", "data": [{"substance": "Coenzyme Q10 [CoQ10]", "values": [{"measurement": "Caspase 3 protein level by Western blot", "setting": "NCIES0808 cells [1]; 24 hours of treatment with 100 μM Q10", "result": "marked downregulation"}, {"measurement": "Angiotensin-converting enzyme (ACE) protein level by Western analysis", "setting": "NCIES0808 cells [1]; [5]", "result": "downregulated"}, {"measurement": "Caspase 3 protein level by Western analysis", "setting": "NCIES0808 cells [1]; [5]", "result": "downregulated"}, {"measurement": "GARS protein level by Western analysis", "setting": "NCIES0808 cells [1]; [5]", "result": "downregulated"}, {"measurement": "Matrix Metalloproteinase 6 protein level by Western analysis", "setting": "NCIES0808 cells [1]; [5]", "result": "downregulated"}, {"measurement": "Neurolysin protein level by Western analysis", "setting": "NCIES0808 cells [1]; [5]", "result": "downregulated"}, {"measurement": "Pattern of regulation, FOXP3 mRNA", "setting": "NCIES0808 cells [2]; 6 hours, 50 uM Q10", "result": "Upregulation at 6 hours with 50 uM and 100 uM Q10."}, {"measurement": "Pattern of regulation, FOXP3 mRNA", "setting": "NCIES0808 cells [2]; 6 hours, 100 uM Q10", "result": "Upregulation at 6 hours with 50 uM and 100 uM Q10."}, {"measurement": "Pattern of regulation, GCGR mRNA", "setting": "NCIES0808 cells [2]; 6 hours, 100 uM Q10", "result": "Upregulation at 6 hours with 100 uM Q10."}, {"measurement": "Pattern of regulation, GPD1 mRNA", "setting": "NCIES0808 cells [2]; 6 hours, 100 uM Q10", "result": "Upregulation at 6 hours with 100 uM Q10."}, {"measurement": "Pattern of regulation, INPPL1 mRNA", "setting": "NCIES0808 cells [2]; 6 hours, 100 uM Q10", "result": "Upregulation at 6 hours with 100 uM Q10."}, {"measurement": "Pattern of regulation, IRS2 mRNA", "setting": "NCIES0808 cells [2]; 6 hours, 100 uM Q10", "result": "Upregulation at 6 hours with 100 uM Q10."}, {"measurement": "Pattern of regulation, ADRB mRNA", "setting": "NCIES0808 cells [2]; 24 hours, 100 uM Q10", "result": "Upregulation at 24 hours with 100 uM Q10."}, {"measurement": "Pattern of regulation, DUSP4 mRNA", "setting": "NCIES0808 cells [2]; 24 hours, 100 uM Q10", "result": "Upregulation at 24 hours with 100 uM Q10."}, {"measurement": "Pattern of regulation, FOX C2 mRNA", "setting": "NCIES0808 cells [2]; 24 hours, 100 uM Q10", "result": "Upregulation at 24 hours with 100 uM Q10"}, {"measurement": "Pattern of regulation, HMOX1 mRNA", "setting": "NCIES0808 cells [2]; 24 hours, 100 uM Q10", "result": "Upregulation at 24 and 48 hours with 100 uM Q10."}, {"measurement": "Pattern of regulation, VEGFA mRNA", "setting": "NCIES0808 cells [2]; 24 hours, 100 uM Q10", "result": "Upregulation at 24 hours with 100 uM Q10 and 48 hours"}, {"measurement": "Pattern of regulation, VEGFA mRNA", "setting": "NCIES0808 cells [2]; 48 hours, 50 uM Q10", "result": "Upregulation at 24 hours with 100 uM Q10 and 48 hours"}, {"measurement": "Pattern of regulation, CEACAM1 mRNA", "setting": "NCIES0808 cells [2]; 48 hours, 100 uM Q10", "result": "Upregulation at 48 hours with 100 uM Q10."}, {"measurement": "Pattern of regulation, HMOX1 mRNA", "setting": "NCIES0808 cells [2]; 48 hours, 100 uM Q10", "result": "Upregulation at 24 and 48 hours with 100 uM Q10."}, {"measurement": "Pattern of regulation, IL4R mRNA", "setting": "NCIES0808 cells [2]; 48 hours, 100 uM Q10", "result": "Upregulation at 48 hours with 100 uM Q10."}, {"measurement": "Survival of cancer patients on therapy with CoQ10", "setting": "cancer patients", "result": "5-15 years"}, {"measurement": "Pattern of regulation, ANGPTL3 mRNA", "setting": "NCIES0808 cells [3]; 3 hours", "result": "Down regulation at 3 hours with 100 uM Q10."}, {"measurement": "Pattern of regulation, CCL2 mRNA", "setting": "NCIES0808 cells [3]; 3 hours", "result": "Down regulation at 3 hours with 100 uM Q10."}, {"measurement": "Pattern of regulation, CDH5 mRNA", "setting": "NCIES0808 cells [3]; 3 hours", "result": "Down regulation at 3 and 24 hours with 100 uM Q10."}, {"measurement": "Pattern of regulation, CXCL1 mRNA", "setting": "NCIES0808 cells [3]; 3 hours", "result": "Down regulation at 3 hours with 100 uM Q10"}, {"measurement": "Pattern of regulation, CXCL3 mRNA", "setting": "NCIES0808 cells [3]; 3 hours", "result": "Down regulation at 3 hours with 100 uM Q10."}, {"measurement": "Pattern of regulation, LAMA5 mRNA", "setting": "NCIES0808 cells [3]; 6 hours", "result": "Up regulation at 6 hours with 100 uM Q10."}, {"measurement": "Pattern of regulation, CDH5 mRNA", "setting": "NCIES0808 cells [3]; 24 hours", "result": "Down regulation at 3 and 24 hours with 100 uM Q10."}, {"measurement": "Pattern of regulation, PXLDC1 mRNA", "setting": "NCIES0808 cells [3]; 48 hours", "result": "Up regulation at 48 hours with 100 uM Q10."}, {"measurement": "Share of CoQ10 in the reduced form", "setting": "[4]; blood (plasma)", "result": "~96", "unit": "%"}, {"measurement": "Share of CoQ10 in the reduced form", "setting": "[4]; heart", "result": "about 61%"}, {"measurement": "Share of CoQ10 in the reduced form", "setting": "[4]; intenstine", "result": "~95", "unit": "%"}, {"measurement": "Share of CoQ10 in the reduced form", "setting": "[4]; kidney", "result": "~75", "unit": "%"}, {"measurement": "Share of CoQ10 in the reduced form", "setting": "[4]; liver", "result": "~95", "unit": "%"}, {"measurement": "Share of CoQ10 in the reduced form", "setting": "[4]; muscle", "result": "~65", "unit": "%"}]}]}
